Legend:
CD19+ B cells = assay: Human B cell proliferation assay (3H-thymidine incorporation); conditions: for cpm2 / cpm3 / mean cpm / cpm1 / mean of both: B cells, 2 μg/ml, Experiment B; for mean of both: mean of donors 121 and 194
human PBMCs = assay: Human PBMC cytokine response assay (IFN-γ and IFN-α in cell-free medium by ELISA), with or without cPLGA; type: cell-based; conditions: for IFN-γ (pg/ml) 28065: donor 28065 (high background), 1000 = outside assay limits; for IFN-γ (pg/ml) 28065 / IFN-α (pg/ml) 28065 / IFN-α (pg/ml) 28066 / IFN-γ (pg/ml) 28066 / IFN-α (pg/ml) 28067 / IFN-γ (pg/ml) 28067 / IFN-α (pg/ml) 28068 / IFN-γ (pg/ml) 28068 / IFN-α (pg/ml) mean / IFN-γ (pg/ml) mean: 20 ug/ml, 24 h, + PLGA = premixed with 100 μg/ml cPLGA; for IFN-α (pg/ml) 28065: donor 28065; for IFN-α (pg/ml) 28066 / IFN-γ (pg/ml) 28066: donor 28066; for IFN-α (pg/ml) 28067 / IFN-γ (pg/ml) 28067: donor 28067; for IFN-α (pg/ml) 28068 / IFN-γ (pg/ml) 28068: donor 28068; for IFN-α (pg/ml) mean / IFN-γ (pg/ml) mean: mean of donors 28065-28068; for IFN-α mean / IFN-γ mean: mean of donors;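 on IFN-α (pg/ml) mean: 20 µg/mL compound for 24 hours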;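 on IFN-γ (pg/ml) mean: 20 µg/mL compound for 24 hours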

5′-TCGATTT-3′-HEG-5′-TCGATTT-3′-HEG-5′-TCGATTT-3′ [Compound C-74]
B cell proliferation (FIG. 11), in words (CD19+ B cells; purified human B cells, 5 μg/ml, 96 h): induced moderate levels of B cell proliferation

5′-TCGTCG-3′-TEG-5′-ACGTTCG-3′-TEG-5′-AGATGAT-3′ [Compound C-18]
IFN-γ (pg/ml) 28065 (human PBMCs): 1000 pg/mL
IFN-α (pg/ml) 28065 (human PBMCs): 51 pg/mL
IFN-α (pg/ml) 28066 (human PBMCs): 9 pg/mL
IFN-γ (pg/ml) 28066 (human PBMCs): 102 pg/mL
IFN-α (pg/ml) 28067 (human PBMCs): 16 pg/mL
IFN-γ (pg/ml) 28067 (human PBMCs): 27 pg/mL
IFN-α (pg/ml) 28068 (human PBMCs): 162 pg/mL
IFN-γ (pg/ml) 28068 (human PBMCs): 695 pg/mL
IFN-α (pg/ml) mean (human PBMCs): 59 pg/mL
IFN-γ (pg/ml) mean (human PBMCs): 456 pg/mL
cpm2 (CD19+ B cells; donor 121): 17085 cpm
cpm3 (CD19+ B cells; donor 121): 14653 cpm
mean cpm (CD19+ B cells; donor 121 mean): 15869 cpm
cpm1 (CD19+ B cells; donor 194): 10028 cpm
cpm2 (CD19+ B cells; donor 194): 12217 cpm
cpm3 (CD19+ B cells; donor 194): 10538 cpm
mean cpm (CD19+ B cells; donor 194 mean): 10928 cpm
mean of both (CD19+ B cells): 13398 cpm

5′-ACGTTCG-3′-HEG-5′-ACGTTCG-3′-HEG-5′-AGATGAT-3′ [Compound C-24]
IFN-α (human PBMCs; Table 10, donor 28042): 0 pg/mL
IFN-γ (human PBMCs; Table 10, donor 28042): 148 pg/mL
IFN-α (human PBMCs; Table 10, donor 28043): 0 pg/mL
IFN-γ (human PBMCs; Table 10, donor 28043): 156 pg/mL
IFN-α (human PBMCs; Table 10, donor 28044): 8 pg/mL
IFN-γ (human PBMCs; Table 10, donor 28044): 312 pg/mL
IFN-α (human PBMCs; Table 10, donor 28045): 0 pg/mL
IFN-γ (human PBMCs; Table 10, donor 28045): 26 pg/mL
IFN-α mean (human PBMCs; Table 10): 2 pg/mL
IFN-γ mean (human PBMCs; Table 10): 161 pg/mL
IFN-γ (pg/ml) 28065 (human PBMCs): 337 pg/mL
IFN-α (pg/ml) 28065 (human PBMCs): 28 pg/mL
IFN-α (pg/ml) 28066 (human PBMCs): 0 pg/mL
IFN-γ (pg/ml) 28066 (human PBMCs): 2 pg/mL
IFN-α (pg/ml) 28067 (human PBMCs): 8 pg/mL
IFN-γ (pg/ml) 28067 (human PBMCs): 4 pg/mL
IFN-α (pg/ml) 28068 (human PBMCs): 67 pg/mL
IFN-γ (pg/ml) 28068 (human PBMCs): 116 pg/mL
IFN-α (pg/ml) mean (human PBMCs): 26 pg/mL
IFN-γ (pg/ml) mean (human PBMCs): 115 pg/mL
cpm1 (CD19+ B cells; donor 121): 8206 cpm
cpm2 (CD19+ B cells; donor 121): 6789 cpm
cpm3 (CD19+ B cells; donor 121): 2799 cpm
mean cpm (CD19+ B cells; donor 121 mean): 5931 cpm
cpm1 (CD19+ B cells; donor 194): 3979 cpm
cpm2 (CD19+ B cells; donor 194): 3407 cpm
cpm3 (CD19+ B cells; donor 194): 3468 cpm
mean cpm (CD19+ B cells; donor 194 mean): 3618 cpm
mean of both (CD19+ B cells): 4775 cpm

5′-TCGTCG-3′-HEG-5′-TCGTCG-3′-HEG-5′-TCGTCG-3′ [Compound C-22]
IFN-α (human PBMCs; Table 9, donor 28089): 0 pg/mL
IFN-γ (human PBMCs; Table 9, donor 28089): 31 pg/mL
IFN-α (human PBMCs; Table 9, donor 28090): 46 pg/mL
IFN-γ (human PBMCs; Table 9, donor 28090): 15 pg/mL
IFN-α (human PBMCs; Table 9, donor 28098): 97 pg/mL
IFN-γ (human PBMCs; Table 9, donor 28098): 110 pg/mL
IFN-α (human PBMCs; Table 9, donor 28099): 247 pg/mL
IFN-γ (human PBMCs; Table 9, donor 28099): 91 pg/mL
IFN-α mean (human PBMCs; Table 9): 97 pg/mL
IFN-γ mean (human PBMCs; Table 9): 62 pg/mL
IFN-α (human PBMCs; Table 10, donor 28042): 12 pg/mL
IFN-γ (human PBMCs; Table 10, donor 28042): 206 pg/mL
IFN-α (human PBMCs; Table 10, donor 28043): 18 pg/mL
IFN-γ (human PBMCs; Table 10, donor 28043): 343 pg/mL
IFN-α (human PBMCs; Table 10, donor 28044): 67 pg/mL
IFN-γ (human PBMCs; Table 10, donor 28044): 736 pg/mL
IFN-α (human PBMCs; Table 10, donor 28045): 30 pg/mL
IFN-γ (human PBMCs; Table 10, donor 28045): 40 pg/mL
IFN-α mean (human PBMCs; Table 10): 32 pg/mL
IFN-γ mean (human PBMCs; Table 10): 331 pg/mL
activity when formulated with cPLGA, in words (human PBMCs; formulated with cPLGA): induced considerable IFN-γ and IFN-α when formulated with cPLGA
IFN-γ induction, in words (human PBMCs; used alone): induce IFN-γ when used alone
cpm1 (CD19+ B cells; donor 121): 17147 cpm
cpm2 (CD19+ B cells; donor 121): 14014 cpm
cpm3 (CD19+ B cells; donor 121): 6844 cpm
mean cpm (CD19+ B cells; donor 121 mean): 12668 cpm
cpm1 (CD19+ B cells; donor 194): 6472 cpm
cpm2 (CD19+ B cells; donor 194): 5540 cpm
cpm3 (CD19+ B cells; donor 194): 3894 cpm
mean cpm (CD19+ B cells; donor 194 mean): 5302 cpm
mean of both (CD19+ B cells): 8985 cpm

— US9028845B2, “Chimeric immunomodulatory compounds and methods of using the same-IV” (Dynavax Technologies Corporation, priority 2001, dated 2015)
